Assay [1] concerns C. difficile clinical isolates. The assay is described as follows: MIC via agar dilution versus 110 clinical isolates of C. difficile. The class given is cell-based. Conditions: 110 clinical isolates.
For another assay, the system named is C. difficile. Description: Post-antibiotic effect (PAE) in C. difficile. Type of assay: cell-based. The settings on record: at 4× the MIC, clinical isolate LC3. As for the experimental part:
The term “PAE” or “post-antibiotic effect” refers to a well-established pharmacodynamic parameter that reflects the persistent suppression of bacterial growth following antibiotic exposure.
Vancomycin and rifampin were tested additionally versus LC3.
Because of the long duration of this effect, an exact PAE was not calculated.

The text below walks through data of US8586551B2, “18-membered macrocycles and analogs thereof” (Optimer Pharmaceuticals, Inc., priority 2005, dated 2013).

For `CN[C@H](CC(C)C)C(=O)N[C@H]1C(=O)N[C@@H](CC(N)=O)C(=O)N[C@H]2C(=O)N[C@H]3C(=O)N[C@H](C(=O)N[C@H](C(=O)O)c4cc(O)cc(O)c4-c4cc3ccc4O)[C@H](O)c3ccc(c(Cl)c3)Oc3cc2cc(c3O[C@@H]2O[C@H](CO)[C@@H](O)[C@H](O)[C@H]2O[C@H]2C[C@](C)(N)[C@H](O)[C@H](C)O2)Oc2ccc(cc2Cl)[C@H]1O` [Vancomycin, reference compound], the “MIC range” value in assay [1] was in the range of 0.06 to 4 µg/mL. Further, the PAE entry in the assay with C. difficile is “less than an hour”. For `Cc1ncc([N+](=O)[O-])n1CCO` [Metronidazole, reference compound], in assay [1], the “MIC range” value was in the range of 0.025 to 0.5 µg/mL.
